In paper PMC6105598, “Targeting protein-protein interactions for therapeutic discovery via FRET-based high-throughput screening in living cells” (Scientific Reports, 2018):
Values joined by “and” are separate entries in the source; they are usually repeats but may differ in a detail not shown here. Equal entries are not always repeated. Where two headings read alike, the source gives them in different places.

Key:
[1] = biological target: T1, cardiac SR (SERCA2a + PLB) (Sus scrofa, UniProt P11607); experiment: Ca-ATPase activity of cardiac SR (CSR), NADH-linked enzyme-coupled assay; format: biochemical, pig; settings: for Vmax @ 30 µM / ΔVmax @ 30 µM: 30 µM compound; for ΔVmax @ 30 µM: relative to DMSO control
T1 construct: Cardiac SR membrane vesicles were isolated from ventricular myocardium obtained from fresh pig hearts; from tissue; host or cells: pig ventricular myocardium, SR membrane vesicles
Description: To characterize the relationship between the structural readout (FRET) and the functional effects, in vitro Ca-ATPase assays were performed on cardiac SR (which contains both SERCA2a and PLB). […] To further examine the functional effects of Hit compounds, Ca-ATPase assays were performed on both skeletal SR (SERCA1a only) and cardiac SR (SERCA2a + PLB) at a series of Ca concentrations ranging from pCa 5 to 8.
(§1) Skeletal muscle SR membrane vesicles were isolated from longissimus dorsi obtained from New Zealand white rabbits, as previously described. Cardiac SR membrane vesicles were isolated from ventricular myocardium obtained from fresh pig hearts. All experimental protocols were reviewed and approved by University of Minnesota’s Institutional Animal Care and Use Committee, an Association for Assessment and Accreditation of Laboratory Animal Care institution.
(§2) An enzyme-coupled, NADH-linked ATPase assay was used to measure SERCA ATPase activity in 96-well microplates. Each well contained 0.8 μg (skeletal) or 2 μg (cardiac) of SR vesicles adjusted for the different SERCA contents of skeletal and cardiac SR, 50 mM MOPS (pH 7.0), 100 mM KCl, 5 mM MgCl2, 1 mM EGTA, 0.2 mM NADH, 1 mM phosphoenol pyruvate, 10 IU/mL of pyruvate kinase, 10 IU/mL of lactate dehydrogenase, 3.5 μg/mL of the Ca ionophore A23187, and CaCl2 added to set free [Ca] to the desired values. The assay was started upon the addition of ATP at a final concentration of 5 mM and read in a SpectraMax Plus microplate spectrophotometer rom Molecular Devices (Sunnyvale, CA).

[2] = biological target: T2, skeletal SR (SERCA1a only) (Oryctolagus cuniculus, UniProt P04191); experiment: Ca-ATPase activity of skeletal SR (SSR), NADH-linked enzyme-coupled assay; format: biochemical, rabbit; settings: for Vmax @ 30 µM / percent change in Vmax vs DMSO control at 30 µM / ΔVmax @ 30 µM / EC50: SSR; for Vmax @ 30 µM / percent change in Vmax vs DMSO control at 30 µM / ΔVmax @ 30 µM: 30 µM compound; for percent change in Vmax vs DMSO control at 30 µM / ΔVmax @ 30 µM: relative to DMSO control; for percent change in Vmax vs DMSO control at 30 µM: read-out: ΔVmax @ 30 µM
T2 construct: Skeletal muscle SR membrane vesicles were isolated from longissimus dorsi obtained from New Zealand white rabbits; from tissue; host or cells: rabbit longissimus dorsi skeletal muscle, SR membrane vesicles
Description: To further examine the functional effects of Hit compounds, Ca-ATPase assays were performed on both skeletal SR (SERCA1a only) and cardiac SR (SERCA2a + PLB) at a series of Ca concentrations ranging from pCa 5 to 8.
as §1, §2

[3] = biological target: SERCA2a-PLB complex (GFP-SERCA2a / RFP-PLB in HEK293 cells) (Homo sapiens, UniProt P16615+P26678, C36A/C41F/C46A); experiment: SERCA2a-PLB TR-FRET (fluorescence lifetime) biosensor assay in living cells; format: cell-based; design: expressed in transfected cells; host or cells: HEK293; settings: for ΔFLT: compound incubation for 20 min, uncertainty (1 S.D.) 11 ps; for direction of FRET change of the SERCA2a-PLB biosensor: concentration-response 0.01-100 µM
[4] = concentration-response 0.01-100 µM compound, live HEK293 cells

Chain of SERCA2a-PLB complex (GFP-SERCA2a / RFP-PLB in HEK293 cells) (P16615 1-997 isoform P16615-2, stated change not applied): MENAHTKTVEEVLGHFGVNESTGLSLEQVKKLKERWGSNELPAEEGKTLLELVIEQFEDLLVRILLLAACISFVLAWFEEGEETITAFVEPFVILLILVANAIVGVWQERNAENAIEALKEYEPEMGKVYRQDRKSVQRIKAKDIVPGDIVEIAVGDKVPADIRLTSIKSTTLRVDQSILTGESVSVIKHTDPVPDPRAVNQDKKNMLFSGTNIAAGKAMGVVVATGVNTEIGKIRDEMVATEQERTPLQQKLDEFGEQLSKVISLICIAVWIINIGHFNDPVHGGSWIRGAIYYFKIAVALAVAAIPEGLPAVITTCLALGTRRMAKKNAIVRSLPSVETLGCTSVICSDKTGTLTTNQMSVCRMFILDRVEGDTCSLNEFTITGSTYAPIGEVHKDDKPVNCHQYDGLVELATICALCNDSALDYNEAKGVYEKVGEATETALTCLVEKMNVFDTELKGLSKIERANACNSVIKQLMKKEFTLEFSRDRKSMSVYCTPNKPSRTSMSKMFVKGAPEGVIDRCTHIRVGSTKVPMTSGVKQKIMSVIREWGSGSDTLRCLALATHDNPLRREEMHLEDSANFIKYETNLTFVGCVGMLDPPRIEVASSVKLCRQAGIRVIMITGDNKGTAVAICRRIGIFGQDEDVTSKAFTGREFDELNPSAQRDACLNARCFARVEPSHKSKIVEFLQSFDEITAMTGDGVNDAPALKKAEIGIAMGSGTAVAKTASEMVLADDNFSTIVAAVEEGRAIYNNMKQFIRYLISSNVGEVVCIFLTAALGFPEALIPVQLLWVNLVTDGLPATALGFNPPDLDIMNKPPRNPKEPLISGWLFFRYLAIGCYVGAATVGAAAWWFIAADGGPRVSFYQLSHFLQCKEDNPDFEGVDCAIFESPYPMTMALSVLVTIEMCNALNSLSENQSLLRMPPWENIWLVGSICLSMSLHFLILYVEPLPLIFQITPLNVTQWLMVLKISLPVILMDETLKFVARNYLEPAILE
Chain of SERCA2a-PLB complex (GFP-SERCA2a / RFP-PLB in HEK293 cells) (P26678 whole entry C36A/C41F/C46A): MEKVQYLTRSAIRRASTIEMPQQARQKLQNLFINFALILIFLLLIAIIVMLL
T2 sequence (P04191 1-994 isoform P04191-2): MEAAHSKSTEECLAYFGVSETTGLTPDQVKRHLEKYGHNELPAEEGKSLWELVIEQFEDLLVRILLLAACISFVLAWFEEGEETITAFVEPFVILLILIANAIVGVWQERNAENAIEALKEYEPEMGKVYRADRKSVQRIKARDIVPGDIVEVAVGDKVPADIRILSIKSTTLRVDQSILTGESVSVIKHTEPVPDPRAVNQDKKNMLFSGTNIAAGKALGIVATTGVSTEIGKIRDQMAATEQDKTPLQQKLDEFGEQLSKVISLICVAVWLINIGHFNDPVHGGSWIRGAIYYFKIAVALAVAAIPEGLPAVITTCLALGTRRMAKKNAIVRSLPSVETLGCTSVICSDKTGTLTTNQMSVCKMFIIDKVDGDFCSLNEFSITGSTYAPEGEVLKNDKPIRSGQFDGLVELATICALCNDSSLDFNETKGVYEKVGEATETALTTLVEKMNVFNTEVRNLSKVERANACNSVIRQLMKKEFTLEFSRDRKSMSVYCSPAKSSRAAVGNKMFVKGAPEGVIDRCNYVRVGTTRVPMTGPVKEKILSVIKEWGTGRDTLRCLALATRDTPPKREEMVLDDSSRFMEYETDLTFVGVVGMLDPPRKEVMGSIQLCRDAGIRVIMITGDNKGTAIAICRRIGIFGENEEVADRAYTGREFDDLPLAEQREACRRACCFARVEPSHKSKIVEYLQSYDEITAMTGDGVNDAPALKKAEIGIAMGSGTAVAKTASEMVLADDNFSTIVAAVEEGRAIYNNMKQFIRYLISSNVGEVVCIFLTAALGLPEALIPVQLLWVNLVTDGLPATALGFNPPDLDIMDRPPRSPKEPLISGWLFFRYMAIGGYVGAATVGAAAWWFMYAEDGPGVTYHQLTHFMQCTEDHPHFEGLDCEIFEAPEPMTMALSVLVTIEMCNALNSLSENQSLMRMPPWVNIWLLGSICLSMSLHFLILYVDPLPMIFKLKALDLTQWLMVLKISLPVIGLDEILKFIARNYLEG
T1 sequence (P11607 1-997 isoform P11607-2): as the sequence (P16615 1-997 isoform P16615-2, stated change not applied) above, with R371K, N403K, S538P, L570M, H576N, D667E, A713S, S865T, I889V, V963L counted along it
T1 sequence (P61013 whole entry partner): as the sequence (P26678 whole entry C36A/C41F/C46A) above, with E2D, K27N, A36C, F41C, A46C counted along it

Structure (SMILES) | Vmax @ 30 µM ([1]; CSR) [i.u.] | ΔVmax @ 30 µM ([1]; CSR) [%] | EC50 ([1]; CSR, read-out: EC50 Vmax) [µM] | Vmax @ 30 µM [2] [i.u.] | percent change in Vmax vs DMSO control at 30 µM [2] [%] | ΔFLT ([3]; final concentration 10 µM) [ps] | ΔFLT ([3]; final concentration 100 µM) [ps] | EC50 [3, 4] [µM] | ΔVmax @ 30 µM [2] [%] | EC50 [3] [µM] | EC50 [2] | EC50 ([1]; cardiac SR (SERCA2a + PLB), read-out: EC50 of the increase in Ca affinity (pKCa)) [µM] | increase of Ca-ATPase activity at pCa 6.4 ([1]; cardiac SR, pCa 6.4, 24 µM compound) [%] | Ca affinity (pKCa) in cardiac SR with compound ([1]; increased from 6.05 (control), concentration-dependent, up to 64 µM) | effect on Ca affinity in skeletal SR ([2]; even at the highest compound concentrations) | direction of FRET change of the SERCA2a-PLB biosensor [3] | decrease of Vmax ([1]; cardiac SR) [%] | decrease of Vmax ([2]; skeletal SR) [%] | increase of Vmax ([1]; cardiac SR) [%] | increase of Vmax ([2]; skeletal SR) [%]
CC1=C(/C=C/C(C)=C/C=C/C(C)=C/C(=O)O)C(C)(C)CCC1 [Retinoic Acid] | 0.42 | -37.8 | 11.2 | 2.34 | -10.6 | 27 | -31 | 65.5 | – | – | – | – | – | – | – | – | – | – | – | –
CCc1ccc(/C=C2/SC(=S)NC2=O)cc1 [10058-F4] | 0.63 | -7.5 | – | 2.63 | – | 17 | -11 | – | 0.5 | – | – | – | – | – | – | – | – | – | – | –
Brc1c(Br)c(Br)c2n[nH]nc2c1Br [TBB] | 0.49 | -27.2 | – | 2.66 | – | 31 | 63 | 73.2 | 1.6 | – | – | – | – | – | – | – | – | – | – | –
CC(C)(C)c1ccc(/C=C/C(=O)Nc2ccc3c(c2)OCCO3)cc1 [AMG9810] | 0.68 | 0.1 | – | 2.62 | – | 6 | -1 | – | 0.1 | – | – | – | – | – | – | – | – | – | – | –
NC(=O)N1C(=O)/C(=C(\O)c2cccs2)c2cc(Cl)ccc21 [Tenidap] | 0.66 | -1.7 | – | 2.66 | 1.8 | 8 | -68 | – | – | > 100 | – | – | – | – | – | – | – | – | – | –
CCOc1nc2cccc(C(=O)OC(C)OC(=O)OC3CCCCC3)c2n1Cc1ccc(-c2ccccc2-c2nnn[nH]2)cc1 (stereo not shown) [Candesartan cilexetil] | 0.17 | -75.3 | 11.7 | 0.41 | -84.5 | 70 | 181 | 20.1 | – | – | 7.42 µM | – | – | – | – | – | – | – | – | –
C=C(C)[C@H]1Cc2c(ccc3c2O[C@@H]2COc4cc(OC)c(OC)cc4[C@@H]2C3=O)O1 [Rotenone] | 0.53 | -22.0 | – | 2.64 | 0.7 | – | – | – | – | – | – | – | – | – | – | – | – | – | – | –
O=C(c1cc(O)c(O)c([N+](=O)[O-])c1)c1ccccc1F [Ro 41-0960] | 0.53 | -20.9 | – | 1.44 | – | -26 | -152 | 22.5 | -45.1 | – | 9.78 µM | 23 | 44 | 6.45 | no effect | increase in FRET | – | – | – | –
CN=c1nc(-c2ccccc2)n(-c2ccccc2)s1 [SCH 202676] | 0.22 | -68.2 | 1.4 | 0.07 | – | 36 | 35 | 1.8 | -97.3 | – | 0.9 µM | – | – | – | – | decrease in FRET | 68 | 97 | – | –
COC(=O)c1c(C)[nH]c(C)c1C(=O)c1ccccc1Cc1ccccc1 [FPL 64176] | 0.52 | -23.0 | – | 2.64 | – | 19 | 47 | > 100 | 0.7 | – | – | – | – | – | – | – | – | – | – | –
CCCCN(CC)c1nc(C)nc2c1c(C)cn2-c1c(C)cc(C)cc1C [CP 154526] | 0.91 | 34.4 | 1 | 3.40 | 35 | 48 | 185 | 9.3 | – | – | 2.5 µM and 2.47 µM | – | – | – | – | decrease in FRET | – | – | 34 | 35
